From patent US10933059B2, “Combination, application thereof and treatment method” (KANGPU BIOPHARMACEUTICALS, LTD., priority 2016, dated 2021) come the findings set out here.

One test relates to Vcap cells. The test is described as follows: CTG cell proliferation assay on Vcap cells (compounds alone or in combination, 5 days). Conditions: Homo sapiens, VCaP, 120 h, B105 or C111 0.05 μM alone, 5 days; read-out: Vcap cell proliferation inhibition rate. Format: cell-based. How it is done: In vitro test of the inhibition effect of the compound in combination with androgen receptor pathway modulators on the prostate cancer cell proliferation.
Inhibition effect of the compounds such as B101, B102, B103, B104, B105, B106, C111 and the like, androgen receptor pathway modulators, hormone compounds, alone or in combination with each other on the prostate cancer cell proliferation were tested on Vcap cells (androgen receptor (+) prostate cancer cells) (ATCC, catalogue number CRL-2876). The specific experimental operation was as follows: 5×10^3 Vcap cells per well were inoculated into 96-well plates with transparent bottom and white wall (Corning, catalogue number CLS3903) containing the specific medium, and were cultured in a 37° C., 5% CO2 incubator for 24 hours. The tested compounds and the androgen receptor pathway modulators were prepared to a 150 mM stocking solution with DMSO (Sigma, catalogue number 276855), diluted with culture medium to the desired concentrations (the final concentration of DMSO is 0.2%), and then added to each well, 2 wells/concentration, followed by being incubated in a 37° C., 5% CO2 incubator for 5 days. The tested compounds were used alone or in combination with other androgen receptor pathway modulators and/or hormone compounds respectively. […] After that, 100 μl of CellTiter-Glo® cell viability assay reagent (Promega, catalogue number G7570) was added to each well and mixed well on a vibrator for 10 minutes to induce cell lysis. The 96-well plate was placed at room temperature for 10 minutes, so as to stabilize its luminescence signal. A white bottom membrane was pasted on the bottom of the plate and the plate was tested using EnSpire.
As for `[2H][C@]1(N2Cc3c(OCc4ccc(CN5CCOCC5)cc4F)cccc3C2=O)CCC(=O)NC1=O` [C111], the inhibition at 0.05 µM was determined as 19.6%.

Still in this test, the particulars now being: Homo sapiens, VCaP, 120 h, B105 or C111 0.14 μM alone, 5 days; read-out: Vcap cell proliferation inhibition rate.
Turning to `[2H][C@]1(N2Cc3c(OCc4ccc(CN5CCOCC5)cc4F)cccc3C2=O)CCC(=O)NC1=O` [C111], the inhibition at 0.14 µM came to 20.9%.

The same test, now with this note: Homo sapiens, VCaP, 120 h, B105 or C111 1.23 μM alone, 5 days; read-out: Vcap cell proliferation inhibition rate.
As for `[2H][C@]1(N2Cc3c(OCc4ccc(CN5CCOCC5)cc4F)cccc3C2=O)CCC(=O)NC1=O` [C111], the inhibition at 1.23 µM is 23.4%.

The same test, now with this note: Homo sapiens, VCaP, 120 h, B105 or C111 3.70 μM alone, 5 days; read-out: Vcap cell proliferation inhibition rate.
Turning to `[2H][C@]1(N2Cc3c(OCc4ccc(CN5CCOCC5)cc4F)cccc3C2=O)CCC(=O)NC1=O` [C111], the inhibition at 3.7 µM came out at 25.4%.

The same test, now with this note: Homo sapiens, VCaP, 120 h, B105 or C111 11.11 μM alone, 5 days; read-out: Vcap cell proliferation inhibition rate.
Consider `[2H][C@]1(N2Cc3c(OCc4ccc(CN5CCOCC5)cc4F)cccc3C2=O)CCC(=O)NC1=O` [C111], for which the inhibition at 11.11 µM turned out to be 28.8%.

The test is the same for the next values; noted with them: Homo sapiens, VCaP, 120 h, B105 or C111 33.33 μM alone, 5 days; read-out: Vcap cell proliferation inhibition rate.
Take `[2H][C@]1(N2Cc3c(OCc4ccc(CN5CCOCC5)cc4F)cccc3C2=O)CCC(=O)NC1=O` [C111]: the inhibition at 33.33 µM came to 29.1%.

Staying with this test, now noted: Homo sapiens, VCaP, 120 h, B105 or C111 100.00 μM alone, 5 days; read-out: Vcap cell proliferation inhibition rate.
For `[2H][C@]1(N2Cc3c(OCc4ccc(CN5CCOCC5)cc4F)cccc3C2=O)CCC(=O)NC1=O` [C111], the inhibition at 100 µM worked out at 31.6%.

The test is the same for the next values; noted with them: Homo sapiens, VCaP, 120 h, B105 or C111 300.00 μM alone, 5 days; read-out: Vcap cell proliferation inhibition rate.
`[2H][C@]1(N2Cc3c(OCc4ccc(CN5CCOCC5)cc4F)cccc3C2=O)CCC(=O)NC1=O` [C111]: the inhibition at 300 µM was found to be 33.9%.

Still in this test, the particulars now being: Homo sapiens, VCaP, 120 h, read-out: Survival rate of Vcap cells, tested compound alone, 0.1 μM.
Turning to `C[C@](O)(COc1ccc(C#N)cc1)C(=O)Nc1ccc(C#N)c(C(F)(F)F)c1` [MK-2866, reference compound], the viability at 0.1 µM worked out at 76.5%.

The test is the same for the next values; noted with them: Homo sapiens, VCaP, 120 h, read-out: Survival rate of Vcap cells, tested compound alone, 1 μM.
`C[C@](O)(COc1ccc(C#N)cc1)C(=O)Nc1ccc(C#N)c(C(F)(F)F)c1` [MK-2866, reference compound]: the viability at 1 µM was determined as 77.4%.

Staying with this test, now noted: Homo sapiens, VCaP, 120 h, read-out: Survival rate of Vcap cells, tested compound alone, 10 μM.
As for `C[C@](O)(COc1ccc(C#N)cc1)C(=O)Nc1ccc(C#N)c(C(F)(F)F)c1` [MK-2866, reference compound], the viability at 10 µM worked out at 69.4%.

Staying with this test, now noted: Homo sapiens, VCaP, 120 h, tested compound alone, 0.1 μM; read-out: Survival rate of Vcap cells.
Regarding `[2H][C@]1(N2Cc3c(OCc4ccc(CN5CCOCC5)cc4F)cccc3C2=O)CCC(=O)NC1=O` [C111], the viability at 0.1 µM was determined as 81.5%.

The same test, now with this note: Homo sapiens, VCaP, 120 h, tested compound alone, 1 μM; read-out: Survival rate of Vcap cells.
Consider `[2H][C@]1(N2Cc3c(OCc4ccc(CN5CCOCC5)cc4F)cccc3C2=O)CCC(=O)NC1=O` [C111], for which the viability at 1 µM was 81%.

The same test, now with this note: Homo sapiens, VCaP, 120 h, tested compound alone, 10 μM; read-out: Survival rate of Vcap cells.
As for `[2H][C@]1(N2Cc3c(OCc4ccc(CN5CCOCC5)cc4F)cccc3C2=O)CCC(=O)NC1=O` [C111], the viability at 10 µM worked out at 77%.

The same test, now with this note: tested compound 0.1 μM in combination with 1 μM ARN-509.
As for `[2H][C@]1(N2Cc3c(OCc4ccc(CN5CCOCC5)cc4F)cccc3C2=O)CCC(=O)NC1=O` [C111], the “Survival rate of Vcap cells” value amounted to 37.0%.

The same test, now with this note: tested compound 0.1 μM in combination with 1 μM Abiraterone acetate.
Consider `[2H][C@]1(N2Cc3c(OCc4ccc(CN5CCOCC5)cc4F)cccc3C2=O)CCC(=O)NC1=O` [C111], for which the “Survival rate of Vcap cells” value stood at 65.5%.

The same test, now with this note: tested compound 0.1 μM in combination with 1 μM B101.
Consider `C[C@](O)(COc1ccc(C#N)cc1)C(=O)Nc1ccc(C#N)c(C(F)(F)F)c1` [MK-2866, reference compound], for which the “Survival rate of Vcap cells” value is reported as 61.4%.

The test is the same for the next values; noted with them: tested compound 0.1 μM in combination with 1 μM B105.
Turning to `C[C@](O)(COc1ccc(C#N)cc1)C(=O)Nc1ccc(C#N)c(C(F)(F)F)c1` [MK-2866, reference compound], the “Survival rate of Vcap cells” value is listed as 62.6%.

The same test, now with this note: tested compound 0.1 μM in combination with 1 μM Enzalutamide.
Turning to `[2H][C@]1(N2Cc3c(OCc4ccc(CN5CCOCC5)cc4F)cccc3C2=O)CCC(=O)NC1=O` [C111], the “Survival rate of Vcap cells” value was 36.3%.

Still in this test, the particulars now being: tested compound 0.1 μM in combination with 1 μM Galeterone.
As to `[2H][C@]1(N2Cc3c(OCc4ccc(CN5CCOCC5)cc4F)cccc3C2=O)CCC(=O)NC1=O` [C111], the “Survival rate of Vcap cells” value was 46.6%.

Still in this test, the particulars now being: tested compound 0.1 μM in combination with 1 μM ODM-201.
Take `[2H][C@]1(N2Cc3c(OCc4ccc(CN5CCOCC5)cc4F)cccc3C2=O)CCC(=O)NC1=O` [C111]: the “Survival rate of Vcap cells” value was found to be 45.9%.

Staying with this test, now noted: tested compound 1 μM in combination with 1 μM ARN-509.
With `[2H][C@]1(N2Cc3c(OCc4ccc(CN5CCOCC5)cc4F)cccc3C2=O)CCC(=O)NC1=O` [C111], the “Survival rate of Vcap cells” value was 35.6%.

The test is the same for the next values; noted with them: tested compound 1 μM in combination with 1 μM Abiraterone acetate.
As to `[2H][C@]1(N2Cc3c(OCc4ccc(CN5CCOCC5)cc4F)cccc3C2=O)CCC(=O)NC1=O` [C111], the “Survival rate of Vcap cells” value was found to be 68.5%.

Staying with this test, now noted: tested compound 1 μM in combination with 1 μM B101.
Regarding `C[C@](O)(COc1ccc(C#N)cc1)C(=O)Nc1ccc(C#N)c(C(F)(F)F)c1` [MK-2866, reference compound], the “Survival rate of Vcap cells” value is reported as 63.6%.

Staying with this test, now noted: tested compound 1 μM in combination with 1 μM B105.
For the molecule `C[C@](O)(COc1ccc(C#N)cc1)C(=O)Nc1ccc(C#N)c(C(F)(F)F)c1` [MK-2866, reference compound], the “Survival rate of Vcap cells” value stood at 59.7%.

Staying with this test, now noted: tested compound 1 μM in combination with 1 μM Enzalutamide.
As for `[2H][C@]1(N2Cc3c(OCc4ccc(CN5CCOCC5)cc4F)cccc3C2=O)CCC(=O)NC1=O` [C111], the “Survival rate of Vcap cells” value was 35.8%.

The same test, now with this note: tested compound 1 μM in combination with 1 μM Galeterone.
Take `[2H][C@]1(N2Cc3c(OCc4ccc(CN5CCOCC5)cc4F)cccc3C2=O)CCC(=O)NC1=O` [C111]: the “Survival rate of Vcap cells” value is given as 47.0%.

Staying with this test, now noted: tested compound 1 μM in combination with 1 μM ODM-201.
As for `[2H][C@]1(N2Cc3c(OCc4ccc(CN5CCOCC5)cc4F)cccc3C2=O)CCC(=O)NC1=O` [C111], the “Survival rate of Vcap cells” value amounted to 43.1%.

The test is the same for the next values; noted with them: tested compound 10 μM in combination with 1 μM ARN-509.
As to `[2H][C@]1(N2Cc3c(OCc4ccc(CN5CCOCC5)cc4F)cccc3C2=O)CCC(=O)NC1=O` [C111], the “Survival rate of Vcap cells” value was determined as 37.3%.

The same test, now with this note: tested compound 10 μM in combination with 1 μM Abiraterone acetate.
Turning to `[2H][C@]1(N2Cc3c(OCc4ccc(CN5CCOCC5)cc4F)cccc3C2=O)CCC(=O)NC1=O` [C111], the “Survival rate of Vcap cells” value amounted to 66.1%.

The same test, now with this note: tested compound 10 μM in combination with 1 μM B101.
Take `C[C@](O)(COc1ccc(C#N)cc1)C(=O)Nc1ccc(C#N)c(C(F)(F)F)c1` [MK-2866, reference compound]: the “Survival rate of Vcap cells” value was determined as 52.7%.

The test is the same for the next values; noted with them: tested compound 10 μM in combination with 1 μM B105.
For the molecule `C[C@](O)(COc1ccc(C#N)cc1)C(=O)Nc1ccc(C#N)c(C(F)(F)F)c1` [MK-2866, reference compound], the “Survival rate of Vcap cells” value is recorded as 52.5%.

Staying with this test, now noted: tested compound 10 μM in combination with 1 μM Enzalutamide.
`[2H][C@]1(N2Cc3c(OCc4ccc(CN5CCOCC5)cc4F)cccc3C2=O)CCC(=O)NC1=O` [C111]: the “Survival rate of Vcap cells” value was 36.6%.

The test is the same for the next values; noted with them: tested compound 10 μM in combination with 1 μM Galeterone.
`[2H][C@]1(N2Cc3c(OCc4ccc(CN5CCOCC5)cc4F)cccc3C2=O)CCC(=O)NC1=O` [C111]: the “Survival rate of Vcap cells” value is given as 47.8%.

The test is the same for the next values; noted with them: tested compound 10 μM in combination with 1 μM ODM-201.
`[2H][C@]1(N2Cc3c(OCc4ccc(CN5CCOCC5)cc4F)cccc3C2=O)CCC(=O)NC1=O` [C111]: the “Survival rate of Vcap cells” value is 37.2%.
